{"source": "paper PMC3839906", "about": "“Structural and Physiological Analyses of the Alkanesulphonate-Binding Protein (SsuA) of the Citrus Pathogen Xanthomonas citri” (PLoS ONE, 2013)", "key": {"[1]": {"biological_target": "T1, SsuA (alkanesulphonate-binding protein) (Xanthomonas citri, UniProt A0AAI7ZHA1)", "T1 construct": "mature periplasmic protein without the 42-residue signal peptide (972 bp amplicon), pET28a N-terminal His6 tag with thrombin site, tag cut with thrombin; expressed in E. coli BL21(DE3); one molecule per asymmetric unit", "T1 sequence (A0AAI7ZHA1 entry or part of it)": "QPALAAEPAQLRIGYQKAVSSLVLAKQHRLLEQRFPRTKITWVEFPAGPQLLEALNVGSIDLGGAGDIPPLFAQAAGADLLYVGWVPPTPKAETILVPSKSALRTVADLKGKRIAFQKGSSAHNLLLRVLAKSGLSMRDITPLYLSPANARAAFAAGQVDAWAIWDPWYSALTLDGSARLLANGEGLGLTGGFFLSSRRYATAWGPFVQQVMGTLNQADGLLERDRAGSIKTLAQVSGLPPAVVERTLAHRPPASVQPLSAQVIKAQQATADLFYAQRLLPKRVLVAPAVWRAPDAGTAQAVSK", "assay": "thermal shift assay, SYPRO orange", "conditions": "5 mM ligand, 6 µM SsuA, 20 mM Tris pH 7.4, 50 mM NaCl"}, "[2]": {"biological_target": "T1, SsuA (alkanesulphonate-binding protein)", "assay": "X-ray crystal structure of the complex", "conditions": "ligand-binding pocket"}}, "data": [{"smiles": "O=S(=O)(O)CCN1CCN(CCO)CC1", "note": "[HEPES, 4-(2-hydroxyethyl)-1-piperazine ethane sulphonic acid]", "values": [{"measurement": "Tm (unbound form 39.5 °C)", "setting": "[1]", "value": 45.8, "unit": "°C"}, {"measurement": "X-ray crystal structure of the complex", "setting": "[2]; 0.1 M HEPES pH 7.5, 1.6 M ammonium sulphate, 0.1 M NaCl", "value": "PDB codes 3E4R (SsuA + HEPES), 3KSX (SsuA + MOPS) and 3KSJ (SsuA + MES)"}]}, {"smiles": "O=S(=O)(O)CCN1CCOCC1", "note": "[MES, 2-(n-morpholino)-ethanesulphonic acid]", "values": [{"measurement": "Tm (unbound form 39.5 °C)", "setting": "[1]", "value": 47.1, "unit": "°C"}, {"measurement": "X-ray crystal structure of the complex", "setting": "[2]; PDB code as in the deposition statement b39 (b17 prints 3KSX for MES)", "value": "PDB codes 3E4R (SsuA + HEPES), 3KSX (SsuA + MOPS) and 3KSJ (SsuA + MES)"}]}, {"smiles": "O=S(=O)(O)CCCN1CCOCC1", "note": "[MOPS, 3-morpholinopropane-1-sulphonic acid]", "values": [{"measurement": "Tm (unbound form 39.5 °C)", "setting": "[1]", "value": 51, "unit": "°C"}, {"measurement": "X-ray crystal structure of the complex", "setting": "[2]; PDB code as in the deposition statement b39 (b17 prints 3KSJ for MOPS)", "value": "PDB codes 3E4R (SsuA + HEPES), 3KSX (SsuA + MOPS) and 3KSJ (SsuA + MES)"}]}, {"smiles": "O=S(=O)(O)CCNC1CCCCC1", "note": "[CHES, 2-(n-cyclohexylamino)-ethanesulphonic acid]", "values": [{"measurement": "Tm (unbound form 39.5 °C)", "setting": "[1]", "value": 43.5, "unit": "°C"}]}]}
